Results as given in PubChem BioAssay (NCI).
Several values for one entry are separate records, joined by “and”; a condition that tells them apart may be missing. Identical values can stand only once.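 Dose response: 5 concentrations. Exposure: 48 h. Format: 96-well plates. Endpoint: linear interpolation; highest concentration if not reached. GI50 = concentration required for 50% inhibition of growth. TGI denotes the concentration required for complete inhibition of growth.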

Tests used:
Assay in all cases: NCI anticancer screen, dose series, 48 h
A549 NSCLC = system: A549 NSCLC
HS 578T breast = system: HS 578T breast
SNB-19 CNS = system: SNB-19 CNS
SK-OV-3 ovarian = system: SK-OV-3 ovarian
HCT-116 colon = system: HCT-116 colon
786-0 renal = system: 786-0 renal
MDA-N = system: MDA-N
OVCAR-8 ovarian = system: OVCAR-8 ovarian
SF-539 CNS = system: SF-539 CNS
NCI-H460 lung = system: NCI-H460 lung

SMILES | TGI (A549 NSCLC) | TGI (HS 578T breast) [µM] | TGI (SNB-19 CNS) [µM] | TGI (SK-OV-3 ovarian) | TGI (HCT-116 colon) | TGI (786-0 renal) [µM] | TGI (MDA-N) | TGI (OVCAR-8 ovarian) | TGI (SF-539 CNS) | TGI (NCI-H460 lung) | GI50 (A549 NSCLC) [µM] | GI50 (SNB-19 CNS) [µM] | GI50 (SK-OV-3 ovarian) [µM] | GI50 (HCT-116 colon) [µM] | GI50 (OVCAR-8 ovarian) [µM] | GI50 (SF-539 CNS) [µM] | GI50 (NCI-H460 lung) [µM] | GI50 (MDA-N) [µM]
CCOC(=O)/C=C(\C(=O)OCC)n1ccc(=O)[nH]c1=O | > 84.5 µM | 99.8 | > 100 | > 76.1 µM | 19.6 µM | 18.5 | 51.3 µM | > 53.4 µM | 75.1 µM | 52.2 µM | – | – | – | – | – | – | – | –
C=C(C)CNC(=S)N(N)c1ccc2ccccc2c1 | > 100 µM | > 100 | > 100 | > 100 µM | > 100 µM | > 100 | > 100 µM | > 100 µM | > 100 µM | > 100 µM | – | – | – | – | – | – | – | –
Cc1ccc([N+](=O)[O-])c2c(NCC(O)CO)ccnc12 (configuration not stated) | > 100 µM | > 100 | > 100 | > 100 µM | > 100 µM | > 100 | > 100 µM | > 100 µM | 48.6 µM | 53.2 µM | – | – | – | – | – | – | – | –
COc1ccc(Nc2nc(N)c(C(=O)c3cccs3)s2)cc1 | > 47.8 µM | > 61.9 | > 64.8 | > 100 µM | > 36.5 µM | > 56.6 | > 82.4 µM | > 100 µM | 19.5 µM | 11.1 µM | – | – | – | – | – | – | – | –
Cc1c(C(=O)O)n2cnnc2c2ccccc12 | > 100 µM | > 100 | > 100 | > 100 µM | > 100 µM | > 100 | > 100 µM | > 100 µM | > 100 µM | > 100 µM | – | – | – | – | – | – | – | –
c1ccc(CN2CCN3CCN(CC2)CCN(Cc2ccccc2)CC3)cc1 | > 56.1 µM | 35.5 | 18.7 | 40 µM | 16.4 µM | 18.2 | 12.2 µM | 23.3 µM | 21.6 µM | 19.3 µM | – | – | – | – | – | – | – | –
CCC(NC1=NCCO1)c1cccs1 (configuration not stated) | 28.1 µM | 26.4 | 29.8 | 27.3 µM | 27.1 µM | 28.7 | 27.7 µM | 30.3 µM | 29.8 µM | 46 µM | – | – | – | – | – | – | – | –
CC1(C)CCc2c(c(N=Nc3ccc(F)cc3)c3ccccc3c2O)O1 | 32.2 µM | > 100 | > 100 | > 100 µM | > 100 µM | > 100 | 31.5 µM | > 100 µM | > 100 µM | 63.4 µM | – | – | – | – | – | – | – | –
O=C1C(=Cc2ccc(Cl)c(Cl)c2)C([O-])=C([P+](c2ccccc2)(c2ccccc2)c2ccccc2)C([O-])=C1[P+](c1ccccc1)(c1ccccc1)c1ccccc1 | 10.4 µM | 12.7 | 6.35 | 4.48 µM | 3.73 µM | 4.18 | 3.77 µM | 6.7 µM | 5.17 µM | 10.9 µM | – | – | – | – | – | – | – | –
CC(=O)c1c2n(n(-c3ccccc3)c1=O)C(=O)c1nccnc1-2 | > 100 µM | > 100 | > 100 | > 100 µM | > 100 µM | > 100 | > 100 µM | > 100 µM | > 100 µM | > 100 µM | – | – | – | – | – | – | – | –
CCN1CCC(O)(/C=C/c2ccc(C(C)C)cc2)C(C(=O)/C=C/c2ccc(C(C)C)cc2)C1 (configuration not stated) | 11.5 µM | 5.68 | 15.5 | 31.8 µM | 3.53 µM | 3.4 | 5 µM | 4.31 µM | 4.58 µM | 3.35 µM | – | – | – | – | – | – | – | –
S=c1[nH]c2ccc(I)cc2c(=S)n1Cc1ccccc1 | > 100 µM | > 100 | 48.6 | > 100 µM | 13.2 µM | 21.4 | 56.9 µM | 53.6 µM | 37.2 µM | 16.3 µM | – | – | – | – | – | – | – | –
OC(CC(O)(C(F)(F)F)C(F)(F)F)c1ccc(C(O)CC(O)(C(F)(F)F)C(F)(F)F)cc1 (configuration not stated) | 28.6 µM | 47.7 | 30.9 | 31.9 µM | 24 µM | 34.9 | 35.4 µM | 29.5 µM | 29.4 µM | 31.6 µM | – | – | – | – | – | – | – | –
CCOc1ccc2c(c1)c(=O)c1c(NCCN(CC)CC)ccc3nnn2c31 | > 55.5 µM | > 100 | > 100 | > 100 µM | > 44.9 µM | > 49 | 35.7 µM | 65.8 µM | 24.1 µM | > 57.8 µM | – | – | – | – | – | – | – | –
Cc1ccc(-n2cc([Si](C)(C)C)nn2)s1 | > 100 µM | > 100 | > 100 | > 100 µM | > 100 µM | > 100 | > 100 µM | > 100 µM | > 100 µM | > 100 µM | – | – | – | – | – | – | – | –
O=c1c2ccccc2nc(N/N=C/c2ccccc2O)n1-c1ccccc1 | > 100 µM | 39.5 | > 100 | > 100 µM | 8.8 µM | 2.86 | > 100 µM | 5.43 µM | > 100 µM | > 100 µM | – | – | – | – | – | – | – | –
Cn1c(O)c(C=Nc2ccccc2Cl)c(=O)n(C)c1=O | > 100 µM | > 100 | 78.4 | > 100 µM | 35.5 µM | 37.7 | > 100 µM | > 100 µM | 60.7 µM | 32.8 µM | – | – | – | – | – | – | – | –
COc1cc(Br)c(CC2C3=C(CCN2C(=O)C2CCC2)CC(=O)CC3)cc1O (configuration not stated) | > 100 µM | 85.5 | > 100 | > 100 µM | > 100 µM | 95.8 | 45 µM | > 100 µM | > 100 µM | > 100 µM | – | – | – | – | – | – | – | –
Cc1cn(S(=O)(=O)c2ccccc2)c2c(OCc3ccccc3)cc(NS(C)(=O)=O)cc12 | > 100 µM | > 100 | > 100 | > 100 µM | > 100 µM | > 100 | > 100 µM | > 100 µM | > 100 µM | > 100 µM | – | – | – | – | – | – | – | –
C=CCC(C(=O)Nc1cccc2[nH]cnc12)C(=O)OCC (configuration not stated) | > 100 µM | > 100 | > 100 | > 100 µM | > 100 µM | > 100 | > 100 µM | > 100 µM | > 100 µM | > 100 µM | – | – | – | – | – | – | – | –
CN(C)/N=N/c1nc[nH]c1C(N)=O | – | > 1000 | > 1000 | 88.7 µM and 328 µM | > 1000 µM | > 1000 | > 1000 µM | > 1000 µM | 99.3 µM and > 875 µM | > 1000 µM | > 147 | > 85.3 | 14.2 | 45.4 | 35.9 | 47.5 | 59.4 | –
C=C(C(=O)O[C@H]1C(=O)C2=C(C)CCC3C(=C)C(=O)O[C@@H]3C2[C@]1(C)O)C1CC[C@]2(C)CCCC(=C)[C@H]2C1 (some centres not stated) | 12.9 µM and 24.5 µM | 15.8 | 26.6 | 30.5 µM | 9.96 µM and 8.4 µM | 4.29 | 11.6 µM and 8.45 µM | 12.3 µM and 13.1 µM | 16.5 µM and 10.3 µM | 10.4 µM and 11.1 µM | 5.59 | – | – | 2.09 | 5.67 | 7.16 | 0.0398 | 0.117
